Source: US10857139B2, “Substituted diazaspiroalkanes as androgen receptor modulators” (The Regents of the University of California, priority 2006, dated 2020)

Columns and labels:
[1] = Stability of intravenous formulation (DMSO/PBS solution) at room temperature; assay type: physicochemical; settings: 10-25% DMSO, balance PBS
Method: A compound presently disclosed, for example, compound A51 or A52, can be in a formulation suitable for intravenous dosing. In an embodiment, the compound is dissolved in from about 10% to about 25% dimethylsulfoxide (DMSO). 1× phosphate buffered saline (PBS) is then mixed into the solution as the balance, and the solution is sonicated with a water bath sonicator until it is homogeneous.
At a compound concentration of 1.5 mg/mL, 5 minutes of sonication may be sufficient to dissolve the compound. At a compound concentration of 2 mg/ml, more than 5 minutes of sonication may be required to dissolve the compound and a polyethylene glcyol can be added to keep the compound in suspension. For example, 5 to 40% PEG-400 (a polyethylene glycol), such as, 5-10% PEG-400, can be added.

[2] = Solubility in ethanol; assay type: physicochemical
Source text: (§1) When administered to mice, hardening of the skin and skin irritation around the injection site was observed, and this was attributed to the use of DMSO.

[3] = biological target: T1, androgen receptor (AR) (Homo sapiens, UniProt P10275, T878A); assay: Secreted PSA induced by R1881 in hormone sensitive (HS) LNCaP cells (PSA ELISA); assay type: cell-based; settings: FIG. 1, R1881, 5 days incubation
T1 construct: endogenous in cells; host or cells: LNCaP cells
T1 sequence (P10275 1-920 T878A): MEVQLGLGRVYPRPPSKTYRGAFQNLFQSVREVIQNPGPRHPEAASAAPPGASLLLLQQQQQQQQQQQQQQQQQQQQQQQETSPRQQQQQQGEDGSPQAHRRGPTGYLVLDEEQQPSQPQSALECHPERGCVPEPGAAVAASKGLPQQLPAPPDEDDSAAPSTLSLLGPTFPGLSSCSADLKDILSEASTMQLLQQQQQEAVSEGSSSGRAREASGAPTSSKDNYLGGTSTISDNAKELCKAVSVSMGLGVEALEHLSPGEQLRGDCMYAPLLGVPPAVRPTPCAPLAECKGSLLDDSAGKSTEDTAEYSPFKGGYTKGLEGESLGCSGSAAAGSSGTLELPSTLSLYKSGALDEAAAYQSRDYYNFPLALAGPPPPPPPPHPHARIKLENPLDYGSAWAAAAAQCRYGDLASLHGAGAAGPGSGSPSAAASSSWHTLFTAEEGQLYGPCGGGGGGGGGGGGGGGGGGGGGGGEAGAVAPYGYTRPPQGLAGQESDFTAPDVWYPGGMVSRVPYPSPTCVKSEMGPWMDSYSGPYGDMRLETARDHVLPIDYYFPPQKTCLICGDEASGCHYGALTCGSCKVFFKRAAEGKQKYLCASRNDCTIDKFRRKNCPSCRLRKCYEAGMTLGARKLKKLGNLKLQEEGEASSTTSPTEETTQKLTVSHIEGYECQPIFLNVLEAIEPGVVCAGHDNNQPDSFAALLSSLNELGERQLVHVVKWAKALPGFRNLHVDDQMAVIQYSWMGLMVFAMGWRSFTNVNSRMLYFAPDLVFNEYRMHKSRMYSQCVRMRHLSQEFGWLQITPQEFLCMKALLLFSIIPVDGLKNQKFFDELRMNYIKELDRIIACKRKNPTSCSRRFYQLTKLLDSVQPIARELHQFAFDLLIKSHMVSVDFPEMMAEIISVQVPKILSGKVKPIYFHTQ
Method: (§2) The biological activity of the compound of formula II was measured by secreted levels of prostate specific antigen (PSA). […] LNCaP cells (or LNCaP/AR cells) were maintained in Iscove's medium containing 10% FBS. Five days prior to drug treatment, the cells were grown in Iscove's medium containing 10% CS-FBS to deprive of androgens.

[4] = test system: LNCaP cells; assay: MTS assay, growth inhibition of HS cancer cells; assay type: cell-based; settings: FIG. 2
Method: The biological activity of the compound of formula II was measured by secreted levels of prostate specific antigen (PSA). It is well established that PSA levels are indicators of AR activities in prostate cancer. […] After 5 days of incubation, secreted PSA levels were assayed using PSA ELISA kits (American Qualex, San Clemente, Calif.) (See FIG. 1 and FIG. 3). The MTS assay was also used to examine the growth inhibition of the compounds of formula II (See FIG. 2).

[5] = Stability of the compounds in vivo with ethanol as solvent; settings: mice
Source text: as §1

[6] = Suspension stability of oral formulation (DMSO/CMC/Tween 80/water); assay type: physicochemical; settings: oral formulation: DMSO, CMC, Tween 80, water; about 1.5 mg/mL
Method: In an embodiment, the compound is dissolved in 100% DMSO.
Additional chemicals can be added, such as a carboxymethylcellulose, a polysorbate, or water. […] The solution is mechanically homogenized for at least 30 seconds.
That is, more than 10% DMSO was not required.

[7] = test system: androgen receptor (AR); assay: Secreted PSA induced by R1881 in hormone refractory (HR) LNCaP/AR cells (PSA ELISA); assay type: cell-based; settings: FIG. 3, R1881, 5 days incubation
Method: as §2

[8] = test system: LNCaP-AR tumors; assay: LNCaP-AR xenograft tumor growth in SCID mice; assay type: in vivo; settings: for effect on tumors in an in vivo assay: administered as described (iv or oral formulation); for effect on tumor: daily dose of 1 mg/kg; for effect on tumor / tumor cytotoxicity / tumor growth: SCID mice; for tumor cytotoxicity: daily dose of 25-50 mg/kg; for tumor growth: daily oral dose of 10 mg/kg
Method: All animal experiments were performed in compliance with the guidelines of the Animal Research Committee of the University of California at Los Angeles. Animals were bought from Taconic and maintained in a laminar flow tower in a defined flora colony. LNCaP-AR and LNCaP-vector cells were maintained in RPMI medium supplemented with 10% FBS. 10^6 cells in 100 μl of 1:1 Matrigel to RPMI medium were injected subcutaneously into the flanks of intact or castrated male SCID mice. Tumor size was measured weekly in three dimensions (length×width×depth) using calipers. Mice were randomized to treatment groups when tumor size reached approximately 100 mm^3. Drugs were given orally everyday at the dose of 10 mg/kg.
Other doses were also tried.
Prostate cancer cell lines were used for xenografts. For example, a LNCaP xenograft, LAPC4 xenograft, LAPC9 xenograft, and xenografts of the hormone refractory counterparts of these cell lines were made. Other cell lines included V-cap, CWR22 and LAPC4 cell lines. Two cell lines that over express the androgen receptor were generated, LNCaP AR and LAPC4 AR. […] Under androgen ablation, the LNCaP AR and LAPC4 AR lines continued to grow, thus behaving like hormone refractory cells.
CB17 SCID mice were used in the study.
Injections were made subcutaneously on the right flank of the mouse. […] In addition, because of the usage of Matrigel, injection of no more than 200 μl was found appropriate. Injection of 100-200 μl was found appropriate. Injecting too large a volume created leakage upon needle withdrawal.

| Structure (SMILES) | stability of solution [1] | solubility in ethanol [2] | antagonist effect on HS cancer cells (secreted PSA) [3] | antagonist effect on HS cancer cells (MTS growth inhibition) [4] | effect of ethanol on stability of the compounds in vivo [5] | time the compound stays in suspension [6] | antagonist effect on HR cancer cells (secreted PSA) [7] | effect on tumors in an in vivo assay [8] | effect on tumor [8] | tumor cytotoxicity [8] | tumor growth [8] | Luciferase activity ([8]; FIG. 6, after 17 days of treatment) |
| --- | --- | --- | --- | --- | --- | --- | --- | --- | --- | --- | --- | --- |
| Cc1ccc(N2C(=S)N(c3cnc(C#N)c(C(F)(F)F)c3)C(=O)C23CCC3)cc1 [A51, 5-(8-oxo-6-thioxo-5-(4-methylphenyl)-5,7-diazaspiro[3.4]oct-7yl)-3-trifluoromethylpyridine-2-carbonitrile] | stable at room temperature for at least a week | soluble in ethanol | antagonist effect | antagonist effect | reduce the stability | only a couple of hours | antagonist effect | beneficial effect on tumors | mild effect | some tumor cytotoxicity | completely retard tumor growth | – |
| CNC(=O)c1ccc(N2C(=S)N(c3cnc(C#N)c(C(F)(F)F)c3)C(=O)C23CCC3)cc1F [A52, 4-[7-(6-cyano-5-trifluoromethylpyridin-3-yl)-8-oxo-6-thioxo-5,7-diazaspiro[3,4]oct-5-yl]-2-fluoro-N-methylbenzamide] | stable at room temperature for at least a week | soluble in ethanol | – | antagonist effect | reduce the stability | only a couple of hours | – | beneficial effect on tumors | mild effect | some tumor cytotoxicity | completely retard tumor growth | disappearance of Luciferase activity |
